# From patent publication US20080125414A1, “Method of Treatment” (priority 2002, published 2008)
# Where “and” joins values, the source holds several entries; their conditions need not be identical. Equal values may be shown once.
# What was measured:
# Format in all cases: in vivo
# [1] = system: patients with neuropathic pain; test: Open label multicentre continuation study of devazepide (clinical assessment study); conditions: devazepide 1.25 mg, 2.5 mg or 5.0 mg twice daily for up to 26 weeks
# Text: Patients who took part in the study had pain with a neuropathic element, and were taking regular doses of strong opioids. […] The primary objective of this study was to compare descriptive and visual analogue scale (VAS) assessments of pain and pain relief in patients with neuropathic pain. […] Devazepide treatment was continued for a period of up to six months. During the study patients were required to remain on regular doses of opioids at a dose prescribed by the investigator. Patients were assessed at clinic visits at week 1, week 2 (dose escalation) and thereafter at routine monthly clinic visits. At weekly intervals for the first eight weeks and at monthly intervals thereafter, patients recorded pain and global pain relief using VAS and descriptive pain questionnaires. The questionnaires were returned to the Investigator at the monthly visits. At each clinic visit the Investigator assessed safety and the patients' pain relief, reviewed the dosage, and decided if devazepide treatment should be continued.
# [2] = system: patients with moderate or severe neuropathic pain; test: Multi-centre, double blind placebo controlled crossover study of devazepide as adjunctive therapy to strong opioids
# [3] = system: patient undergoing opioid therapy; test: Clinical studies of devazepide in combination with an opioid (opioid dose reduction); conditions: for reduction of opioid dose: clinical studies, devazepide with opioid
compound,measurement,setting,value
"CN1C(=O)[C@@H](NC(=O)c2cc3ccccc3[nH]2)N=C(c2ccccc2)c2ccccc21 [devazepide, 3s-(−) 1,3dihydro-3-(2-indolecarbonylamino)-1-methyl-5-phenyl-2H-1,4-benzodiazepin-2-one]",patients who appeared to achieve long-term pain relief,"[1]; of seventeen patients, long-term = 5-26 weeks, with regular opioids",ten
same,daily opioid dose,[1]; several patients,markedly reduced
same,Analgesic use expressed as a percentage of pre-treatment use (sum of daily dose),[2]; in vivo,100% and 67%
same,Analgesic use expressed as a percentage of pre-treatment use (sum of daily dose),"[2]; patient ap06/05, analgesic morphine (mg), devazepide 1.25 mg twice daily for two weeks",104%
same,Analgesic use expressed as a percentage of pre-treatment use (sum of daily dose),"[2]; patient ap06/05, analgesic morphine (mg), devazepide 5 mg twice daily for two weeks",100%
same,Analgesic use expressed as a percentage of pre-treatment use (sum of daily dose),"[2]; patient ap06/05, analgesic tramadol (mg), devazepide 1.25 mg twice daily for two weeks",79%
same,Analgesic use expressed as a percentage of pre-treatment use (sum of daily dose),"[2]; patient ap06/05, analgesic tramadol (mg), devazepide 5 mg twice daily for two weeks",54%
same,Analgesic use expressed as a percentage of pre-treatment use (sum of daily dose),"[2]; patient gg01/01, analgesic co-codamol (tablets), devazepide 1.25 mg twice daily for two weeks",106%
same,Analgesic use expressed as a percentage of pre-treatment use (sum of daily dose),"[2]; patient gg01/01, analgesic co-codamol (tablets), devazepide 5 mg twice daily for two weeks",78%
same,Analgesic use expressed as a percentage of pre-treatment use (sum of daily dose),"[2]; patient gg03/03, analgesic morphine (mg), devazepide 1.25 mg twice daily for two weeks",55%
same,Analgesic use expressed as a percentage of pre-treatment use (sum of daily dose),"[2]; patient gg03/03, analgesic morphine (mg), devazepide 5 mg twice daily for two weeks",93%
same,Analgesic use expressed as a percentage of pre-treatment use (sum of daily dose),"[2]; patient ng02/02, analgesic diclofenac (mg), devazepide 1.25 mg twice daily for two weeks",17%
same,Analgesic use expressed as a percentage of pre-treatment use (sum of daily dose),"[2]; patient ng02/02, analgesic diclofenac (mg), devazepide 5 mg twice daily for two weeks",50%
same,Analgesic use expressed as a percentage of pre-treatment use (sum of daily dose),"[2]; patient ng02/02, analgesic morphine (mg), devazepide 1.25 mg twice daily for two weeks",87%
same,Analgesic use expressed as a percentage of pre-treatment use (sum of daily dose),"[2]; patient ng02/02, analgesic morphine (mg), devazepide 5 mg twice daily for two weeks",84%
same,Analgesic use expressed as a percentage of pre-treatment use (sum of daily dose),"[2]; patient ng05/05, analgesic morphine (mg), devazepide 1.25 mg twice daily for two weeks",104%
same,Analgesic use expressed as a percentage of pre-treatment use (sum of daily dose),"[2]; patient ng05/05, analgesic morphine (mg), devazepide 5 mg twice daily for two weeks",100%
same,Analgesic use expressed as a percentage of pre-treatment use (sum of daily dose),"[2]; patient ng05/05, analgesic paracetamol (mg), devazepide 1.25 mg twice daily for two weeks",48%
same,Analgesic use expressed as a percentage of pre-treatment use (sum of daily dose),"[2]; patient ng05/05, analgesic paracetamol (mg), devazepide 5 mg twice daily for two weeks",14%
same,Analgesic use expressed as a percentage of pre-treatment use (sum of daily dose),"[2]; patient sj03/03, analgesic morphine (mg), devazepide 1.25 mg twice daily for two weeks",93%
same,Analgesic use expressed as a percentage of pre-treatment use (sum of daily dose),"[2]; patient sj03/03, analgesic morphine (mg), devazepide 5 mg twice daily for two weeks",97%
same,Analgesic use expressed as a percentage of pre-treatment use (sum of daily dose),"[2]; patient sj03/03, analgesic morphine (ml), devazepide 1.25 mg twice daily for two weeks",13%
same,Analgesic use expressed as a percentage of pre-treatment use (sum of daily dose),"[2]; patient sj03/03, analgesic morphine (ml), devazepide 5 mg twice daily for two weeks",5%
same,Analgesic use expressed as a percentage of pre-treatment use (sum of daily dose),"[2]; patient sj10/73, analgesic dihydrocodeine (mg), devazepide 1.25 mg twice daily for two weeks",100%
same,Analgesic use expressed as a percentage of pre-treatment use (sum of daily dose),"[2]; patient sj10/73, analgesic dihydrocodeine (mg), devazepide 5 mg twice daily for two weeks",50%
same,Analgesic use expressed as a percentage of pre-treatment use (sum of daily dose),"[2]; patient sj10/73, analgesic morphine (mg), devazepide 1.25 mg twice daily for two weeks",100%
same,Analgesic use expressed as a percentage of pre-treatment use (sum of daily dose),"[2]; patient sj10/73, analgesic morphine (mg), devazepide 5 mg twice daily for two weeks",98%
same,Analgesic use expressed as a percentage of pre-treatment use (sum of daily dose),"[2]; patient sj10/73, analgesic paracetamol (mg), devazepide 1.25 mg twice daily for two weeks",75%
same,Analgesic use expressed as a percentage of pre-treatment use (sum of daily dose),"[2]; patient sj10/73, analgesic paracetamol (mg), devazepide 5 mg twice daily for two weeks",50%
same,reduction of opioid dose,[3]; in others,≤ 75%
same,reduction of opioid dose,[3]; in some cases,≤ 95%
same,effect in combination with an opioid,[3]; opioid dose reduced concurrent with improved analgesia,superpotentiating
